The text below walks through data of patent US4021545A, “Complement inhibitors” (priority 1976, dated 1977).

One test relates to activated human C1. Description: Test, Code 026 (C1 inhibitor). Type of test: biochemical. Conditions: serial two-fold dilution assay; higher well number indicates higher activity.
Test [1] has as its system late components of human complement (C3-C9). Description: Test, Code 035 (C3-C9 inhibitor). Type of test: biochemical. Particulars: serial two-fold dilution assay; higher well number indicates higher activity; lysis of EAC 142.
Experimental: (§1) This test measures the ability of activated human C1 to destroy fluid phase human C2 in the presence of C4 and appropriate dilutions of the test compound. […] Inhibition of the shunt pathway results in failure of lysis; (iv) Forssman Test -- Here, the well known complement dependent lesion, Forssman vasculitis, is produced in guinea pigs by intradermal injection of rabbit anti-Forssman antiserum. […] The complement level is determined in undiluted serum by the capillary tube method of U.S. Pat. No. 3,876,376 and compared to undosed control guinea pigs; and (vii) Cap 50 Test -- Here, appropriate amounts of the test compound are added to a pool of guinea pig serum in vitro, after which the undiluted serum capillary tube assay referred to above is run.
For test [2], the system named is shunt pathway activated by cobra venom factor. Type of test: cell-based. Particulars: serial two-fold dilution assay; higher well number indicates higher activity; human erythrocytes in autologous serum.
Experimental: as §1
Test [3] relates to complement in pool of guinea pig serum. The experiment in a line: Cap 50 Test. Type of test: biochemical. Conditions: in vitro, undiluted guinea pig serum, capillary tube assay.
Experimental: as §1
The next test has as its system whole complement. Particulars: 200 mg/kg, percent inhibition of serum complement vs simultaneous controls.

Where “and” joins values, the source holds several entries; their conditions need not be identical. Equal values may be shown once.

Experimental for activated human C1: as §1
Experimental for whole complement: With reference to Table I, guinea pigs weighing about 300 g were dosed intravenously (IV) or intraperitoneally (IP) with 200 mg/kg of the test compound dissolved in saline and adjusted to pH 7-8. One hour after dosing, the guinea pigs were decapitated, blood was collected and the serum separated. The serum was tested for whole complement using the capillary tube assay. Percent inhibition was calculated by comparison with simultaneous controls.

Turning to “Inulin, poly(H-sulfate)salt with triethylamine”, the “Cl 026” value with activated human C1 was 8 wells. In test [1], the “C-Late 035” value turned out to be 5 wells. Moreover, the “Shunt Inhibit. 036” value in test [2] is reported as 5 wells. Besides, the “Cap 50” value in test [3] worked out at 160. Besides, the “In Vivo Activity Guinea Pig (IV) 2 Hr.” value in the test with whole complement (2 Hr.) is on record as -97. For the same substance, in the test with whole complement (30 Hr.), the “In Vivo Activity Guinea Pig (IV) 30 Hr.” value is -95. Further, the “In Vivo Activity Guinea Pig (IV) 120 Hr.” value in the test on whole complement (120 Hr.) is listed as -91.
As to “Inulin, poly(H-sulfate)salt with trimethylamine”, in the test with activated human C1, the “Cl 026” value is on record as 8 wells. The “C-Late 035” value in test [1] stood at 6 wells. Also, the “Shunt Inhibit. 036” value in test [2] is reported as 5 wells. Further, in test [3], the “Cap 50” value is given as 131.
For the substance “Inulin, poly(H-sulfate)sodium salt [INULIN, POLY(H-SULFATE) SODIUM SALT]”, the “Cl 026” value in the test on activated human C1 is 7 wells and 10 wells. Further, the “C-Late 035” value in test [1] was 5 wells and 7 wells. Also, the “Shunt Inhibit. 036” value in test [2] is listed as 5 wells. Moreover, the “Cap 50” value in test [3] is 100 and 94 and 92.
